Laboratory results taken from patent publication US20240025841A1, “METHOD FOR OBTAINING CRYSTALLINE DIETHYLAMINO HYDROXYBENZOYL HEXYL BENZOATE” (BASF SE, priority 2020, published 2024).

Test: Equilibrium solubility of (I) in 1-hexanol at different temperatures
Assay type: physicochemical
Settings: equilibrium solubility in 1-hexanol
Description: The equilibrium solubility of (I) in 1-hexanol at different temperatures was determined using a double jacketed 750 mL crystallizer. A mixture of (I) and 1-hexanol in the crystallizer was heated to a target temperature and the equilibrium condition was allowed to establish at that temperature. Samples from the solid free mother liquor were drawn using a filter frit. The samples were analysed for (I) content.
The results are shown in […].1 and are plotted in FIG. 1.

SMILES: CCCCCCOC(=O)c1ccccc1C(=O)c1ccc(N(CC)CC)cc1O [(I), 2-(4′-Diethylamino-2′-hydroxybenzoyl)benzoic acid hexyl ester]
- (I) concentration (0 °C): 3.8%
- (I) concentration (4 °C): 4.3%
- (I) concentration (7 °C): 5.4%
- (I) concentration (8 °C): 5.3%
- (I) concentration (12 °C): 6.2%
- (I) concentration (13.7 °C): 8.6%
- (I) concentration (16 °C): 7.6%
- (I) concentration (20 °C): 8.8%
- (I) concentration (25 °C): 12.3%
- (I) concentration (28.3 °C): 17.6%
- (I) concentration (30 °C): 19.0%
- (I) concentration (35 °C): 40.0%
- (I) concentration (−0.9 °C): 3.4%
